Key:
ST8814 [1] = test: relative IC50 (inflection point of fitted dose-response curve, CellTiter-Glo viability, 72 h; top asymptote may be below 50% inhibition); higher = less potent
Method in brief: (§1)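 MPNST cell lines and primary human Schwann cells (750–1000 cells per well) went into 384-well plates preprinted with each compound at five concentrations in 10-fold steps. Plates were incubated 72 h at 37 °C, 5% CO2. Viability was read as CellTiter-Glo ATP luminescence, scaled between vehicle and positive-control wells, with duplicates averaged where present. Percent inhibition is at the top concentration; drug sensitivity score and relative IC50 (censored at top concentration) come from four-parameter logistic fits.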

S462 = test: as above
Method in brief: as §1

HS-PSS [2] = test: as above
Method in brief: as §1

HS-Sch-2 = test: as above
Method in brief: as §1

S1507-2 [3] = test: as above
Method in brief: as §1

STS26T [4] = test: as above
Method in brief: as §1

HSC1 [5] = test: as above
Method in brief: as §1

YST-1 = test: as above
Method in brief: as §1

HSC2 [6] = test: as above
Method in brief: as §1

ST8814 [7] = test: relative IC50 (inflection point of fitted dose-response curve, CellTox-Green cytotoxicity, 72 h; top asymptote may be below 50%); higher = less potent
Method in brief: (§2)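 MPNST cell lines and primary human Schwann cells were incubated 72 h at 37 °C in 384-well plates holding five 10-fold compound dilutions. CellTox-Green was added before seeding at a final 1:1000 dilution and reported fluorescence from DNA released by disrupted cells. Signals were scaled to vehicle and positive-control wells, and cultures failing plate quality control were dropped. Drug sensitivity score and relative IC50 come from four-parameter logistic fits, with IC50 censored at the top concentration.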

HS-PSS [8] = test: as above
Method in brief: as §2

S1507-2 [9] = test: as above
Method in brief: as §2

STS26T [10] = test: as above
Method in brief: as §2

HSC1 [11] = test: as above
Method in brief: as §2

HSC2 [12] = test: as above
Method in brief: as §2

Compound | relative IC50 (ST8814 [1]) | relative IC50 (S462) | relative IC50 (HS-PSS [2]) | relative IC50 (HS-Sch-2) | relative IC50 (S1507-2 [3]) | relative IC50 (STS26T [4]) | relative IC50 (HSC1 [5]) | relative IC50 (YST-1) | relative IC50 (HSC2 [6]) | relative IC50 (ST8814 [7]) | relative IC50 (HS-PSS [8]) | relative IC50 (S1507-2 [9]) | relative IC50 (STS26T [10]) | relative IC50 (HSC1 [11]) | relative IC50 (HSC2 [12])
COc1ccc(S(=O)(=O)Nc2cccnc2Nc2ccc(O)cc2)cc1 [ABT-751] | 353 nM | 351 nM | 3010 nM | 437 nM | 325 nM | 367 nM | 468 nM | 814 nM | 476 nM | 536 nM | > 10000 nM | 355 nM | 246 nM | 831 nM | 304 nM
O=C(/C=C/c1cccnc1)NCCCCC1CCN(C(=O)c2ccccc2)CC1 [Daporinad] | 7.62 nM | 4.41 nM | 5.73 nM | 3.57 nM | 37.8 nM | 36.9 nM | 7.32 nM | 2.8 nM | 8.05 nM | > 1000 nM | > 1000 nM | > 1000 nM | 36.1 nM | > 1000 nM | > 1000 nM
CCCCC(=O)OCC(=O)[C@]1(O)Cc2c(O)c3c(c(O)c2[C@@H](O[C@H]2C[C@H](NC(=O)C(F)(F)F)[C@H](O)[C@H](C)O2)C1)C(=O)c1c(OC)cccc1C3=O [Valrubicin] | 285 nM | 233 nM | 422 nM | 264 nM | 534 nM | 306 nM | 238 nM | 97 nM | 258 nM | > 5000 nM | > 5000 nM | > 5000 nM | > 5000 nM | > 5000 nM | > 5000 nM
CNC(=O)c1cc(Oc2ccc(NC(=O)Nc3cc(C(C)(C)C)nn3-c3ccc4ncccc4c3)c(F)c2)ccn1 [Rebastinib] | > 1000 nM | > 1000 nM | > 1000 nM | > 1000 nM | > 1000 nM | > 1000 nM | > 1000 nM | > 1000 nM | > 1000 nM | > 1000 nM | > 1000 nM | > 1000 nM | > 1000 nM | > 1000 nM | > 1000 nM
CCc1c2c(nc3ccc(OC(=O)N4CCC(N5CCCCC5)CC4)cc13)-c1cc3c(c(=O)n1C2)COC(=O)[C@]3(O)CC [Irinotecan] | 1210 nM | 1310 nM | 2610 nM | 1340 nM | 1580 nM | 1790 nM | 406 nM | 359 nM | 822 nM | 1940 nM | 2130 nM | 3670 nM | 2360 nM | 2660 nM | 2240 nM
c1ccc([C@H]2CN3CCSC3=N2)cc1 [Levamisole] | > 10000 nM | > 10000 nM | > 10000 nM | > 10000 nM | > 10000 nM | > 10000 nM | > 10000 nM | > 10000 nM | > 10000 nM | > 10000 nM | > 10000 nM | > 10000 nM | > 10000 nM | > 10000 nM | > 10000 nM
CC(C)c1cc(-c2n[nH]c(=O)n2-c2ccc3c(ccn3C)c2)c(O)cc1O [Ganetespib] | 18.1 nM | 25 nM | 42.7 nM | 23.2 nM | 42.4 nM | 24.4 nM | 14.9 nM | 36.8 nM | 17.2 nM | 11.5 nM | 37.5 nM | 46.4 nM | 33 nM | 17.8 nM | 18.5 nM
CC[C@@]1(O)C(=O)OCc2c1cc1n(c2=O)Cc2cc3c(CN(C)C)c(O)ccc3nc2-1 [Topotecan] | 42.5 nM | 52.4 nM | 323 nM | 136 nM | 173 nM | 202 nM | 123 nM | 44.1 nM | 90.9 nM | 23.3 nM | 869 nM | 550 nM | 197 nM | 50.8 nM | 237 nM
CC[C@@H]1C(=O)N(C)c2cnc(Nc3ccc(C(=O)N[C@H]4CC[C@H](N5CCN(CC6CC6)CC5)CC4)cc3OC)nc2N1C(C)C [Volasertib] | 33.6 nM | 15.4 nM | 42.1 nM | 10.6 nM | 16.1 nM | 7.29 nM | 34.5 nM | 17.7 nM | 33.2 nM | 34.1 nM | > 1000 nM | 12.7 nM | 2.68 nM | 29.3 nM | 25.2 nM
Nc1nc(Cl)nc2c1ncn2[C@@H]1O[C@H](CO)[C@@H](O)[C@@H]1F [Clofarabine] | 744 nM | 374 nM | 387 nM | 161 nM | 817 nM | 301 nM | 289 nM | 331 nM | 207 nM | 814 nM | 311 nM | 1940 nM | 585 nM | 323 nM | 337 nM
O=C(CCBr)N1CCN(C(=O)CCBr)CC1 [Pipobroman] | > 10000 nM | > 10000 nM | > 10000 nM | > 10000 nM | > 10000 nM | > 10000 nM | > 10000 nM | > 10000 nM | > 10000 nM | > 10000 nM | > 10000 nM | > 10000 nM | > 10000 nM | > 10000 nM | > 10000 nM
C[C@@]1(C(=O)Nc2ccc(F)nc2)CCCN1c1nc(Nc2cc(C3CC3)n[nH]2)c2cccn2n1 | 534 nM | 307 nM | 1650 nM | 1150 nM | 495 nM | 663 nM | 441 nM | 18.2 nM | 308 nM | 312 nM | 3330 nM | 1650 nM | 279 nM | 2360 nM | 1400 nM
